From ChEMBL document CHEMBL1158048, “19-Nor- and 18,20-epoxy-cardenolides from the leaves of Calotropis gigantea” (J Nat Prod, 2006)
Calls of active or inactive are those of the source. The calls are words filed in the database; no cut-off is given here.

Legend:
[1] = system: KB; test: Cytotoxicity against human KB cells by SRB assay; format: functional, cell-based
[2] = Cytotoxicity against human BC cells by SRB assay; format: functional, cell-based
[3] = system: NCI-H187; test: Cytotoxicity against human NCI-H187 cells by SRB assay; format: functional, cell-based
[4] = system: KB; test: Cytotoxicity against human KB cells at 20 ug/ml by SRB assay; format: functional, cell-based
[5] = system: BC; test: Cytotoxicity against human BC cells at 20 ug/ml by SRB assay; format: functional, cell-based
[6] = system: NCI-H187; test: Cytotoxicity against human NCI-H187 cells at 20 ug/ml by SRB assay; format: functional, cell-based
[7] = system: Plasmodium falciparum; test: Antimalarial activity after 48 hrs against multidrug-resistant Plasmodium falciparum K1; format: functional, organism-based

SMILES | IC50 [1] [nM] | IC50 [2] [nM] | IC50 [3] [nM] | Activity [4] | Activity [5] | Activity [6] | Activity [7]
C[C@@H]1C[C@H](O)[C@]2(O)O[C@@H]3C[C@@]4(C=O)[C@@H](CC[C@@H]5[C@@H]4CC[C@]4(C)[C@@H](C6=CC(=O)OC6)C[C@@H](O)[C@]54O)C[C@H]3O[C@@H]2O1 | 602 | 547 | 3330 | – | – | – | –
C[C@@H]1C[C@H](O)[C@]2(O)O[C@@H]3C[C@@]4(C=O)[C@@H](CC[C@@H]5[C@@H]4CC[C@]46CO[C@]7(COC(=O)C7)[C@H]4CC[C@]56O)C[C@H]3O[C@@H]2O1 | 1290 | 2210 | 3640 | – | – | – | –
COC(=O)[C@@]1(O)C[C@@H](C)O[C@H]1O[C@@H]1C[C@@H]2CC[C@@H]3[C@H](CC[C@]4(C)[C@@H](C5=CC(=O)OC5)CC[C@]34O)[C@@]2(C(=O)O)C[C@H]1O | – | – | – | inactive | inactive | inactive | –
COC(=O)[C@@]1(O)C[C@@H](C)O[C@H]1O[C@@H]1C[C@@H]2CC[C@@H]3[C@H](CC[C@]4(C)[C@@H](C5=CC(=O)OC5)CC[C@]34O)[C@@]2(C=O)C[C@H]1O [CALACTINICACID METHYL ESTER] | 3730 | 5650 | 14400 | – | – | – | –
C[C@@H]1C[C@@H](O)[C@]2(O)O[C@@H]3C[C@@]4(C=O)[C@@H](CC[C@@H]5[C@@H]4CC[C@]4(C)[C@@H](C6=CC(=O)OC6)CC[C@]54O)C[C@H]3O[C@@H]2O1 [CALACTIN] | 41.3 | 20.7 | 345 | – | – | – | inactive
C[C@@H]1C[C@H](O)[C@]2(O)O[C@@H]3C[C@@]4(C=O)[C@@H](CC[C@@H]5[C@@H]4CC[C@]4(C)[C@@H](C6=CC(=O)OC6)CC[C@]54O)C[C@H]3O[C@@H]2O1 [CALOTROPIN] | 62 | 41.3 | 471 | – | – | – | inactive
C[C@]12CC[C@H](O)C[C@H]1CC[C@@H]1[C@@H]2CC[C@]2(C)[C@@H](C3=CC(=O)OC3)CC[C@]12O [DIGITOXIGENIN] | 9610 | 8950 | 9770 | – | – | – | inactive
COc1cccc2c1C(=O)c1c(O)c3c(c(O)c1C2=O)C[C@@](O)(C(=O)CO)C[C@@H]3O[C@H]1C[C@H](N)[C@H](O)[C@H](C)O1 [DOXORUBICIN] | 219 | 288 | 40.5 | – | – | – | –
Cc1c2ccncc2c(C)c2c1[nH]c1ccccc12 [ELLIPTECINE] | 812 | 682 | 2230 | – | – | – | –
